Source: patent US12448352B2, “Beta adrenergic agonist and methods of using the same” (Curasen Therapeutics, Inc., priority 2019, dated 2025)

Columns and labels:
[1] = Dog pharmacokinetic study; type: in vivo, male Beagle dogs
Method: (§1) The rat pharmacokinetics studies of exemplary compounds 03-3, 03-5, and 03-115 were conducted with male SD rats. These rats were typically about 6-8 weeks old, weighing 200 g to 300 g. Animals were fasted overnight and free access to food 4 hours after dosing. A required volume of vehicle was added to reach the target concentration of the test article and vehicle component to prepare for the dosing. The dosing vehicle was PEG400 or 30% PEG400 in saline for IV, or 0.5% methylcellulose in water for PO. For IV dosing, the animals were administered intravenously via tail vein. For PO dosing, the animals were administered via oral gavage. After dosing, blood sample was collected (˜0.2 mL per time point) through jugular vein or heart puncture. Blood of each sample was transferred into plastic micro centrifuge tubes containing EDTA-K2. Collection tubes with blood samples and anticoagulant were inverted several times for proper mixing of the tube contents and then placed on wet ice. The blood samples were centrifuged at 2000 g for 5 minutes at 4° C. to obtain plasma which was stored in a freezer at −75±15° C. prior to analysis. Samples were analyzed using LC-MS/MS. WinNonlin were used for pharmacokinetic calculations.
(§2) Dog pharmacokinetics studies of exemplary compounds 03-3, 03-5, and 03-115 were conducted substantially similarly to the rat pharmacokinetic studies, instead using male Beagle dogs. Animals for PO studies were food fasted overnight prior to dosing and were fed approximately 2 hours after dosing. Animals for IV studies had free access to food and water. Blood samples were collected through venipuncture of peripheral veins except the dosing vein.

[2] = Rat pharmacokinetic study (plasma); type: in vivo, male SD rats
Method: as §1

[3] = Monkey pharmacokinetic study; type: in vivo, male Non-Naïve Cynomolgus Monkeys; conditions: PO 0.3 mg/kg
Method: as §1
as §2, with “Monkey” for “Dog”, “Non-Naïve Cynomolgus Monkeys.” for “Beagle dogs.”

In the case of Cc1ncccc1[C@@H](O)CNC(C)(C)C [Compound 03-115], the AUCInf ([1]; PO 0.5 mg/kg) is reported as 0.132 µg·h/mL, the Cmax ([1]; PO 0.5 mg/kg) is reported as 0.0723 µg/mL and the MRT ([1]; PO 0.5 mg/kg) is reported as 1.82 h. It also gave a Tmax ([1]; PO 0.5 mg/kg) of 0.5 h, an AUCInf ([1]; PO 1.5 mg/kg) of 0.537 µg·h/mL and a Cmax ([1]; PO 1.5 mg/kg) of 0.387 µg/mL. It also gave an MRT ([1]; PO 1.5 mg/kg) of 1.69 h, a Tmax ([1]; PO 1.5 mg/kg) of 0.33 h and an AUCInf ([2]; IV 1 mg/kg) of 0.164 µg·h/mL. For the same molecule, the C0 ([2]; IV 1 mg/kg) was 0.512 µg/mL, the T1/2 ([2]; IV 1 mg/kg) was 0.36 h and the Vss_obs ([2]; IV 1 mg/kg) was 2.4 L/kg. The AUCInf ([2]; PO 5 mg/kg) was 0.192 µg·h/mL, the Cmax ([2]; PO 5 mg/kg) was 0.174 µg/mL and the MRTInf_obs ([2]; PO 5 mg/kg) was 1.06 h. The T1/2 ([2]; PO 5 mg/kg) was 1.61 h, the Tmax ([2]; PO 5 mg/kg) was 0.25 h and the AUCInf [3] was 0.261 µg·h/mL. The Cmax [3] was 0.067 µg/mL, the MRTInf_obs [3] was 3.46 h and the Tmax [3] was 1.17 h.
